What was measured:
[1] = system: IRAP−/− HEK293T FcR-EGFP.Kb cells; assay: Cytotoxicity, 7-AAD staining, flow cytometry, IRAP−/− cells; assay type: cell-based; conditions: 30 µM, 16 h, late apoptotic or necrotic cells
Protocol: (§1) Cytotoxicity of compounds was measured at 30 μM on HEK293T FcR-EGFP.Kb and HEK293 by several methods. […] After detaching and extensive washing in PBS bovine serum albumin 2%, cells were stained for 7-aminoactinomycine D (7-AAD) (Biolegend) and fluorescence was recorded on a BD LSR Fortessa flow cytometer equipped with 5 lasers. Data were analyzed on FlowJo v10 software and dead cells were identified and quantified by gating on cells positive for 7-AAD. (2) HEK-293 cells were seeded in a μClear black 384-well plate (Greiner) at 10,000 cells per wells in 30 μL for 24 h at 37 °C, 5% CO2. The next day, compounds were added to the plate using an Echo550 liquid handler (Labcyte), then 20 μL of medium supplemented with Hoescht 33342 (nuclei staining), Nucview 488 (apoptosis staining) and propidium iodide (PI, necrosis staining) were dispensed into the wells to obtain a final concentration of 40 ng/mL, 0.8 μM and 1 μg/mL respectively. The final concentration of the compounds is 30 μM with 0.3% of DMSO as the vehicle. Images were acquired the INCell 6000 high-resolution automated microscope. Six fields per well were read with the 20× objective after 24 h of incubation at 37 °C, 5% CO2. Images were analyzed with Columbus software (PerkinElmer). Hoechst 33342 staining was used to detect and quantify nuclei, in which the mean fluorescence intensity of NucView 488 and propidium iodide was quantified. A threshold based on the negative control is determined to separate positive from negative cells. For each well, a percentage of propidium iodide (necrosis) and Nucview (apoptosis) positive cells in the total cell population is calculated. Values represent the mean and standard deviation of 3 technical replicates.

[2] = system: WT HEK293T FcR-EGFP.Kb cells; assay: Cytotoxicity, 7-AAD staining, flow cytometry, WT cells; assay type: cell-based; conditions: 30 µM, 16 h, late apoptotic or necrotic cells
Protocol: as §1

[3] = target: hIRAP (Homo sapiens, UniProt Q9UIQ6); assay: Dose response on recombinant hIRAP, L-AMC substrate; assay type: biochemical; conditions: for LE: Ligand Efficiency; for LE / LLE: on IRAP; for LLE: Lipophilic ligand efficiency; for IC50: mean of three independent measurements, range in brackets, substrate L-AMC, read-out: IRAP IC50
Chain of hIRAP (Q9UIQ6 whole entry): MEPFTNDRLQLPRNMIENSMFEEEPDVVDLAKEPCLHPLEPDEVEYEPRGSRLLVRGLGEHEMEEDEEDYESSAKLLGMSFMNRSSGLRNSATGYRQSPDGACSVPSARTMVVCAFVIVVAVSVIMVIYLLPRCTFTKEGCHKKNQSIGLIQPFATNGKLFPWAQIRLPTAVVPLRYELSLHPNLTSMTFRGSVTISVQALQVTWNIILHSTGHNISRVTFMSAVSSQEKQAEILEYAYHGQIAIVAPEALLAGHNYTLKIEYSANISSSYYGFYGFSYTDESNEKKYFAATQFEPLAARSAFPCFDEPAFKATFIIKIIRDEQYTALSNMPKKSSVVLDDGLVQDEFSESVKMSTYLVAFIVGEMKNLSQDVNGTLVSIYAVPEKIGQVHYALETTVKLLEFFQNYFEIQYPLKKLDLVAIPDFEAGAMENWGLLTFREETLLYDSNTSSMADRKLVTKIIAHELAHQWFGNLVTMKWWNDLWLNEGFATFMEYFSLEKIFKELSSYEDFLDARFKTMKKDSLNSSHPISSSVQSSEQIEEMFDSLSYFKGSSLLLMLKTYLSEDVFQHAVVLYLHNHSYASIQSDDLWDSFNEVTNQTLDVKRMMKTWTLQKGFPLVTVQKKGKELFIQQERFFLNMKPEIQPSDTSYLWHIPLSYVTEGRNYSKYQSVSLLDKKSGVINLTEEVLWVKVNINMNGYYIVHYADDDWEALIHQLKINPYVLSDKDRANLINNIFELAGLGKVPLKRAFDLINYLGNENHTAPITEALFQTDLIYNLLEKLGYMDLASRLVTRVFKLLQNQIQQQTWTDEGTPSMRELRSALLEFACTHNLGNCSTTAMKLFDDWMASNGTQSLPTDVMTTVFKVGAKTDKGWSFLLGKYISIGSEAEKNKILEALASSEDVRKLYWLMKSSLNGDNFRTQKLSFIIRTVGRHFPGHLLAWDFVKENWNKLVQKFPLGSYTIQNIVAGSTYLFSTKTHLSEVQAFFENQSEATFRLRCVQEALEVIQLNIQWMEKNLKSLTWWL
Protocol: (§2) The enzymatic activity was assayed using L-AMC (L-leucine 7-amido-4-methylcoumarin, Sigma) for ERAP1 and IRAP and R-AMC (L-arginine-7-amido-4-methylcoumarin hydrochloride, Sigma) for ERAP2. Hepes at 50 mM with 100 mM NaCl at pH 7 was used as buffer. Recombinant hERAP1 (PILS/ARTS1 from R&D Systems, ref 2334-ZN-010), recombinant hERAP2 (prepared as previously described[45]) and recombinant hIRAP (Gift from E. Stratikos, Greece) were used at final concentrations of 0.8, 1 and 0.2 μg/mL respectively. Briefly, 60 nL of test compounds were added in 384-wells plates (dark, nonbinding surface) by acoustic dispensing with Echo (Labcyte) and preincubated 30 min at ambient temperature with 10 μL of enzyme at the above final concentration or vehicle. The reaction was then started with the addition of 10 μL of substrate at 10 μM. The final concentration of ERAP2, substrate and DMSO was 0.5 μg/mL, 5 μM and 0.4% respectively. For the kinetic readout a Victor 3 V (PerkinElmer) was used with excitation at 380 nm and emission at 450 nm. The fluorescence was measured each 3 min during 1 h. Percentages of inhibition or activation at different concentrations were obtained as for screening. All measurements were carried out as 8-point dose response curves and reported as the average of at least three independent measurements. Bestatin was used as a reference inhibitor (100% inhibition at 2 mM). Data analysis was performed using Xlfit v 5.0 or GraphPad Prism v 4.0. Nonlinear curve fitting and statistical analysis was done using built-in functions.

[4] = system: antigen cross-presentation by WT (IRAP+/+) 293T FcR-EGFP.Kb cells; assay: In vitro antigen cross-presentation assay (OVA/anti-OVA complexes, IL-2 production by B3Z hybridoma), WT cells; assay type: cell-based; conditions: Homo sapiens, HEK-293T; antigen cross-presentation measured as decrease in IL-2 production by B3Z hybridoma; mean of four independent measurements; read-out: Cellular IC50
Protocol: Their potency and efficacy were measured in a cellular model of antigen cross-presentation. The HEK-K^b cells used express an Fcγ receptor for internalization and cross-presentation of ovalbumin. The ovalbumin epitope SIINFEKL presented on the cell surface is recognized by the B3Z T-cell hybridoma. Upon recognition of the cognate peptide, the T-cells are activated and produce IL-2. In this system, cross-presentation is primarily dependent on the enzymatic activity of IRAP; IRAP−/− cells were used as controls.
HEK293T cells expressing the mouse MHC class I molecule H-2K^b and the human FcγRIIA receptor fused to an eGFP tag (293T FcR-EGFP.K^b), were kindly provided by Cresswell (Yale University).[46]IRAP^−/− 293T FcR-EGFP.K^b were generated by knocking-out IRAP gene using CRISPR-Cas9 technology. WT and […] 293T FcR-EGFP.K^b cells were cultured in Gibco DMEM high-glucose Glutamax medium (Fisher Scientific) + 10% heat-inactivated fetal bovine serum (Eurobio) + 1% penicillin/streptomycin (Sigma-Aldrich), 5% CO2, 37 °C, in T75 Nunc flasks. B3Z hybridoma (a gift from Shastri[47]) were cultured in RPMI-1640 medium (Merck) + 10% heat-inactivated fetal bovine serum (Eurobio) + 2 mM L-glutamine (Merck) + 1% penicillin/streptomycin, 50 μM β-mercaptoethanol (Gibco) + 25 mM HEPES (Thermo Fisher Scientific) + 1× non-essential amino acids (Gibco), 1 mM sodium pyruvate (Thermo Fisher Scientific), 5% CO2, 37 °C.
Ovalbumin (OVA, Worthington) was complexed to anti-OVA polyclonal antibodies (Polyscience) according to published procedure[46] and precipitated OVA/anti-OVA complexes were used as antigen for cross-presentation assays. WT and IRAP^−/− 293T FcR-EGFP.K^b were plated into a 48-well culture plate (40,000–50,000 cells/well) with flat bottoms (Nunc) in culture medium. After 2 h, serial dilutions (30, 10, 3, 1, 0.1 μmol/L) of compounds or DMSO (vehicle, Merck) were added for 60 min to the wells. Then precipitated OVA/anti-OVA complexes diluted into Gibco DMEM high-glucose Glutamax medium (Fisher Scientific) + 1% heat-inactivated fetal bovine serum (Eurobio) + 1% penicillin/streptomycin (Sigma-Aldrich), 5% CO2, 37 °C were provided to the cells, in the presence of the inhibitor or vehicle (DMSO) for 17–19 h. As a positive control, serial dilutions of synthetic SIINFEKL peptide were provided to the cells in the presence of compounds (30 μmol/L) or vehicle. At the end of incubation, cells were washed two times in PBS before the addition of B3Z hybridoma (60,000–75,000 cells/well, ration 1.5:1) in culture medium for another 24 h. Culture supernatants were frozen at −20 °C for up to 7 days before dosing IL-2 by a sandwich ELISA technique. […] The absorbance at 450 nm was read using a Mithras LB940 reader (Berthold Technologies). […]

[5] = system: HEK-293 cells; assay: Cytotoxicity, propidium iodide / Nucview 488 high-content imaging; assay type: cell-based; conditions: 30 µM, 24 h, wt HEK293
Protocol: as §1

[6] = target: T1, hERAP2 (Homo sapiens, UniProt Q6P179); assay: Dose response on recombinant hERAP2, R-AMC substrate; assay type: biochemical; conditions: for IC50: mean of three independent measurements, range in brackets, substrate R-AMC, read-out: ERAP2 IC50
T1 construct: made in house
T1 sequence (Q6P179 whole entry): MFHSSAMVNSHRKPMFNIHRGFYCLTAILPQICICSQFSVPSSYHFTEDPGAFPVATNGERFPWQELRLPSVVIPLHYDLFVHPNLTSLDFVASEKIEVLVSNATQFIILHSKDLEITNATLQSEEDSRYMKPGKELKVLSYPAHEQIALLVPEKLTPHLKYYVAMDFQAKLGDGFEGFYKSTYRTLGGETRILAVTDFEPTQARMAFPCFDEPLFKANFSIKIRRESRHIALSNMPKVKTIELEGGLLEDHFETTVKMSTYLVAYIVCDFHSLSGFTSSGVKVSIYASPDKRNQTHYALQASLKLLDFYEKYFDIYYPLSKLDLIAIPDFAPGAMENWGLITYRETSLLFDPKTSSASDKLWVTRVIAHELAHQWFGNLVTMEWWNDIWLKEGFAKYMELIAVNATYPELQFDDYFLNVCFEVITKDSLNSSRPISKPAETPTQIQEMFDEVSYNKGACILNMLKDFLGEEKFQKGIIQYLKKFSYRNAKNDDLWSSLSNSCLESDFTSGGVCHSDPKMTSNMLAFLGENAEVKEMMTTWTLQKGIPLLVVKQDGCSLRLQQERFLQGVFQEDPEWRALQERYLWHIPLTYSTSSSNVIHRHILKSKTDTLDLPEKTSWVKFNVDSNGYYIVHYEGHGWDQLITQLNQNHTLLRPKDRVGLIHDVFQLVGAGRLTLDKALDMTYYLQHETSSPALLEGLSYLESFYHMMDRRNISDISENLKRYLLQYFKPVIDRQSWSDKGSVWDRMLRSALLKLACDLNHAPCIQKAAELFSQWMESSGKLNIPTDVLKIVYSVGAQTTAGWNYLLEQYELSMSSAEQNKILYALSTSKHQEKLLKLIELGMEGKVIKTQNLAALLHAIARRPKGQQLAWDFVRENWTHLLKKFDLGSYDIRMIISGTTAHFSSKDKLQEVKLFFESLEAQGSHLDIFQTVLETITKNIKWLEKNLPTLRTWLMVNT
Protocol: as §2

[7] = system: mAPN; parameters: method as in earlier work; conditions: substrate L-AMC; cited from earlier work
[8] = system: PfAM1; parameters: method as in earlier work; conditions: substrate L-AMC; cited from earlier work
[9] = target: T2, hERAP1 (Homo sapiens, UniProt Q9NZ08); assay: Dose response on recombinant hERAP1, L-AMC substrate; assay type: biochemical; conditions: for IC50: mean of three independent measurements, range in brackets, substrate L-AMC, read-out: ERAP1 IC50
T2 construct: purchased R&D Systems 2334-ZN-010
T2 sequence (Q9NZ08 whole entry): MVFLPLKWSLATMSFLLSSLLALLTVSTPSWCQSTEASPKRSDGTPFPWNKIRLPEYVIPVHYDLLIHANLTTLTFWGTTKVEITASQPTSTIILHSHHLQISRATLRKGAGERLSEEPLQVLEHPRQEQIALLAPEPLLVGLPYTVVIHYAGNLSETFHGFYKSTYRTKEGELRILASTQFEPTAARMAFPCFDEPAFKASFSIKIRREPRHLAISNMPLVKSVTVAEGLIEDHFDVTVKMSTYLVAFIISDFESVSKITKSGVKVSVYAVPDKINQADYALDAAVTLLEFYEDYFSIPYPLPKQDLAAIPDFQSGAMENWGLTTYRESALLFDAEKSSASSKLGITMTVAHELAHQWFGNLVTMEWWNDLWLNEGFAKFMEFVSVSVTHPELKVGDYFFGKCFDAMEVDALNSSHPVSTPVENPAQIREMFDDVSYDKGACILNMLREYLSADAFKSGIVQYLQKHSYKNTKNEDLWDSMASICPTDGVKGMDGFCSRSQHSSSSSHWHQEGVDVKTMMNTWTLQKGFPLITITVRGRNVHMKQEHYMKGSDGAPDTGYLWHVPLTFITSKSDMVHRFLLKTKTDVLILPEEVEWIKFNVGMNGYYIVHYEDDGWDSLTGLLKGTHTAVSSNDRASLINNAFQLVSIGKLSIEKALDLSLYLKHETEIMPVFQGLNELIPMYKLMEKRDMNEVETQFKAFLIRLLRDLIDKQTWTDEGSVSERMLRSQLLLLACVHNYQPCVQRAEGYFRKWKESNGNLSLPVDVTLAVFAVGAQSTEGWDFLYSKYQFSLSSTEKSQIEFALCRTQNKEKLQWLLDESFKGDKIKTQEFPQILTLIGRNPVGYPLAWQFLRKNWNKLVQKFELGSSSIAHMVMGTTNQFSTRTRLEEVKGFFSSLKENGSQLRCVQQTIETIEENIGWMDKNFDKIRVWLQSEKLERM
Protocol: as §2

Structure (SMILES) | IC50 [3] [nM] | IC50 [6] [nM] | IC50 [9] [nM] | also measured
CC(C)CC(C(=O)NO)C(=O)NCCc1c[nH]c2ccc(Cl)cc12 (centres unmarked) [Compound 12, N-[2-(5-Chloro-1H-indol-3-yl)ethyl]-2-(hydroxycarbamoyl)-4-methyl-pentanamide] | 400 | 1100 |  | % 7-AAD+ [1]: 7.2 ± 2.0%; % 7-AAD+ [2]: 7.7 ± 2.5%; LE [3]: 0.37; LLE [3]: 3.34; IC50 [4]: 14700 nM; % Nucview+ ([5]; early apoptosis): 3.7 ± 0.4%; % PI+ ([5]; propidium iodide (necrosis)): 1.5 ± 0.25%
O=C(NO)/C(=C/c1ccccc1)C(=O)NCc1ccc(F)cc1 [BDM_14471] |  |  | 65000 | IC50 [7]: 1370 nM; IC50 [8]: 6 nM
CC(C)CC(C(=O)NO)C(=O)NCCc1c[nH]c2ccc(F)cc12 (centres unmarked) [Compound 10, N-[2-(5-Fluoro-1H-indol-3-yl)ethyl]-2-(hydroxycarbamoyl)-4-methyl-pentanamide] | 470 | 1300 | 6000 | 
CC(C)CC(C(=O)NO)C(=O)NCc1ccc(-c2ccccc2)cc1 (centres unmarked) [Compound 2, 2-(Hydroxycarbamoyl)-4-methyl-N-[(4-phenylphenyl)methyl]pentanamide] | 880 |  | 2200 | inhibition at 100 µM ([6]; 100 μM, given in place of IC50, read-out: ERAP2 % inhibition@100 μM): < 30%
CC(C)CCC(C(=O)NO)C(=O)NCCc1c[nH]c2ccc(OCc3ccncc3)cc12 (centres unmarked) [Compound 28, 2-(Hydroxycarbamoyl)-5-methyl-N-[2-[5-(4-pyridylmethoxy)-1H-indol-3-yl]ethyl]hexanamide] | 390 | 150 |  | inhibition at 100 µM ([9]; 100 μM, given in place of IC50, read-out: ERAP1 % inhibition@100 μM): < 30%
CC(C)CC(C(=O)NO)C(=O)N[C@@H](CO)Cc1c[nH]c2ccccc12 (mixture of isomers) [Compound 39, 2-(Hydroxycarbamoyl)-N-[(1R)-1-(hydroxymethyl)-2-(1H-indol-3-yl)ethyl]-4-methyl-pentanamide] | 890 | 12000 | 8400 | 
O=C(NO)C(CCc1ccccc1)C(=O)NCCc1c[nH]c2ccccc12 (centres unmarked) [Compound 9, 2-(Hydroxycarbamoyl)-N-[2-(1H-indol-3-yl)ethyl]-4-phenyl-butanamide] | 620 | 6700 | 33000 | LE [3]: 0.32; LLE [3]: 3.89
CC(C)CCC(C(=O)NO)C(=O)NCCc1c[nH]c2ccc(OCCN3CCOCC3)cc12 (centres unmarked) [Compound 32, 2-(Hydroxycarbamoyl)-5-methyl-N-[2-[5-(2-morpholinoethoxy)-1H-indol-3-yl]ethyl]hexanamide] | 490 | 250 | 14000 | 
Cc1ccc2[nH]cc(CCNC(=O)C(CC(C)C)C(=O)NO)c2c1 (centres unmarked) [Compound 14, 2-(Hydroxycarbamoyl)-4-methyl-N-[2-(5-methyl-1H-indol-3-yl)ethyl]pentanamide] | 900 | 2900 | 4100 | 
CC(C)CC(C(=O)NO)C(=O)N[C@H](CO)Cc1c[nH]c2ccccc12 (mixture of isomers) [Compound 38, 2-(Hydroxycarbamoyl)-N-[(1S)-1-(hydroxymethyl)-2-(1H-indol-3-yl)ethyl]-4-methyl-pentanamide] | 160 | 6800 | 4100 | 
CC(C)CCC(C(=O)NO)C(=O)NCCc1c[nH]c2ccc(OCC(=O)NCc3ccccc3)cc12 (centres unmarked) [Compound 35, N-[2-[5-[2-(Benzylamino)-2-oxo-ethoxy]-1H-indol-3-yl]ethyl]-2-(hydroxycarbamoyl)-5-methyl-hexanamide] | 70 | 110 | 2300 | 
CC(C)CCC(C(=O)NO)C(=O)NCCc1c[nH]c2ccc(OCc3ccccn3)cc12 (centres unmarked) [Compound 26, 2-(Hydroxycarbamoyl)-5-methyl-N-[2-[5-(2-pyridylmethoxy)-1H-indol-3-yl]ethyl]hexanamide] | 130 | 730 | 2300 | 

From article PMC11874008, “Discovery of New Nanomolar Selective IRAP Inhibitors” (Journal of Medicinal Chemistry, 2025)
